Data from paper PMC11661381, “Covalent-fragment screening identifies selective inhibitors of multiple Staphylococcus aureus serine hydrolases important for growth and biofilm formation” (Research Square, 2024).

Experiments:
Escherichia coli = assay: Bacterial growth inhibition assay, E. coli; format: cell-based
[1] = biological target: T1, Fph enzymes in live S. aureus cells (USA300) (Staphylococcus aureus, UniProt Q2FDS6); assay: Competition of FP-alkyne labeling in live S. aureus cells; format: cell-based; details: live cells, doses 5–100 μM, 120 min preincubation
T1 construct: endogenous in cells; host or cells: live S. aureus USA300 (LAC) wild-type cells
T1 sequence (Q2FDS6 whole entry): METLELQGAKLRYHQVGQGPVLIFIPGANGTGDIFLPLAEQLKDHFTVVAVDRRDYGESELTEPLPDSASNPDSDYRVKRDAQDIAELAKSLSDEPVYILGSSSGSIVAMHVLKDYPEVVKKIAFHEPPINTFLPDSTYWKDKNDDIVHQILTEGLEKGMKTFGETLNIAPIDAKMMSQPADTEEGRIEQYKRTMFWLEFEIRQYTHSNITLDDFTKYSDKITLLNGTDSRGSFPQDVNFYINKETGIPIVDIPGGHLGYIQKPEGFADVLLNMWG
Experimental: (§1) One colony of each of S. aureus wild-type and transposon mutants fphB::Tn, fphE::Tn and fphH::Tn picked from growth on a Tryptic soya agar plate were inoculated in 5 mL of Tryptic soya broth (TSB). The overnight bacterial cultures were spun down at 5,000 g for 10 min and pellet was collected. The pellets were washed twice in 1X PBS buffer and resuspended in the same buffer. Cells were first preincubated with the indicated concentrations of inhibitors for 2hr at 37°C. The cells were washed twice with 1X PBS buffer. The resuspended pellets were incubated with Fluorophosphonate-alkyne (FP-alkyne) for 30 min at 37°C. Cells were washed again twice with 1X PBS buffer and resuspended in with 1X PBS and 0.1% Triton–X and lysed by beat beating at 4°C. Next, lysed cells (20 μL) were mixed with 2.16 μL of freshly prepared click mix (0.5 μL of 50 mM CuSO4 in H2O, 1.16 μL of 100 mM BTTAA in DMSO, and 0.5 μL of N3-Cy5 in DMSO) and 1.16 μL of 300 mM sodium ascorbate solution in H2O and incubated at 37 °C for 30 min. Next step, 20 μL of 4X SDS loading buffer was added in each sample and boiled at 100 °C for 10 min. The processed samples were allowed to cool and analyzed by SDS-PAGE (12%) running at 120 V in an electrophoresis chamber. Cy5 fluorescence was imaged using the Cy5 channel on a Typhoon 9410 Imager (Amersham Biosciences).

[2] = system: Fph enzymes in live S. aureus cells (USA300); assay: as above; format: cell-based, Staphylococcus aureus; details: 100 μM compound, live S. aureus cells
Experimental: as §1

`OB(O)c1csc2ccccc12` [Z27, Benzo[b]thiophen-3-ylboronic acid] was tested, and the “growth defect (in words)” value (Escherichia coli) was “no significant growth defect”, the “concentration completely inhibiting FphE labeling” value [1] was no less than 50 µM and the “competition of FP labeling in live cells (in words)” value [2] was “only blocked FP labeling of FphE in live cells”.
